Results on six compounds are retold here after ChEMBL document CHEMBL3352297, “Structure based virtual screening of MDPI database: discovery of structurally diverse and novel DPP-IV inhibitors” (Bioorg Med Chem Lett, 2014).

The target in experiment [1] is Dipeptidyl peptidase 4 (Homo sapiens, UniProt P27487). Nature of the experiment: Inhibition of human DPP-4 using H-Gly-Pro-para-Nitroanilide as substrate incubated for 20 mins prior to substrate addition measured after 30 mins by spectrophotometry.
The test system of experiment [2] is Rattus norvegicus. Nature of the experiment: Suppression of blood glucose level in Wistar rat at 30 mg/kg, po measured 30 to 120 mins post dextrose challenge by oral glucose tolerance test. The format is functional, organism-based. Also on record: dose 30 mg/kg.

Activity calls are given as the source filed them. The calls are words filed in the database; no cut-off is given here. A value given as a limit tells only on which side of the number the result lay.

Dipeptidyl peptidase 4, sequence (P27487 whole entry): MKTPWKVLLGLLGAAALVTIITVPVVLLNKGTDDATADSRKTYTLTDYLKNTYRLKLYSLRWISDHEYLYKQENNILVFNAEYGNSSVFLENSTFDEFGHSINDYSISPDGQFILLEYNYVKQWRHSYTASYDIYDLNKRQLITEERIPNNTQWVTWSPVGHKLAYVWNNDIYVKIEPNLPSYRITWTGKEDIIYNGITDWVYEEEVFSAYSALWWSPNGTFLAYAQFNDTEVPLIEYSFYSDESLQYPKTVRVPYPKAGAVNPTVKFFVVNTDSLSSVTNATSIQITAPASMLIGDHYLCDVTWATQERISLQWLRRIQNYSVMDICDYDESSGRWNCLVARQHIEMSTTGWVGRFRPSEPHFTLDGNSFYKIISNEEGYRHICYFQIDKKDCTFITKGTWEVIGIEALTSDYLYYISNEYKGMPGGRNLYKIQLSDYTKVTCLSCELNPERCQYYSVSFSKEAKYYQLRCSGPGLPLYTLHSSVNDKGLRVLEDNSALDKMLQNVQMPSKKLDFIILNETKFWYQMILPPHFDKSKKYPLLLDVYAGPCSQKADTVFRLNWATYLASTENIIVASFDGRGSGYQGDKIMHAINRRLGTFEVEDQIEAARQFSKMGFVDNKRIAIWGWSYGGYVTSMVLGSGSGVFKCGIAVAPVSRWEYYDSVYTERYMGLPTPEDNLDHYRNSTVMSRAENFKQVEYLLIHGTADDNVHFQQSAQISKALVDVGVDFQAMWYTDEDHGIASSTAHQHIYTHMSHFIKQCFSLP

The IC50 is the midpoint of a concentration-inhibition curve. On to `CCn1c(=O)c(C(C)(NN)Nc2ccc(C)cc2)c(O)c2ccccc21` (stereo not drawn), for which the half-inhibitory concentration (IC50) in experiment [1] (read-out: IC50) came out at 2950 nM. Further, in experiment [2], the result was Active. For `N=CC(C(=O)c1ccccc1)c1ccccc1` (stereo not drawn), the IC50 in experiment [1] (read-out: IC50) was more than 100000 nM.

Turning to “2,2-diphenylethanaminium tetrachloroaurate”, the outcome in experiment [2] was Active.

On to `Cn1c(=O)c(C(C)(NN)Nc2ccccc2)c(O)c2ccccc21` (stereo not drawn), for which, in experiment [1] (read-out: IC50), the IC50 was determined as 730 nM. In addition, in experiment [2], the result was Active. On to `Cc1ccc(=N)n(Cc2cccc(F)c2)c1`, for which the IC50 in experiment [1] (read-out: IC50) was found to be 34600 nM. As to `CN(C)c1ccc(C(N)CC(=O)c2c(O)c3ccccc3n(C)c2=O)cc1` (stereo not drawn), the concentration for half-maximal inhibition (IC50) result in experiment [1] was “ND(Insoluble)”.
